Like-named read-outs stand apart in the source and are kept apart here. Where no end group is shown, it is not given here.
Tests used:
Type in all cases: cell-based
[1] = test system: Corynebacterium glutamicum (Cg, ATCC 13032)
Protocol: (§1) The peptides were screened for antibacterial activity against two strains of Gram-positive and two strains of Gram-negative bacteria; Corynebacterium glutamicum (Cg, ATCC 13032), Staphylococcus aureus (Sa, ATCC 9144), Pseudomonas aeruginosa (Pa, ATCC 27853) and Escherichia coli (Ec, ATCC 25922).
(§2) Cultures stored at −80° C. in glycerol were transferred to Müller-Hinton plates (MH, Difco, Lawrence, Kans., USA) and incubated for 24 h at 35° C. A few colonies of each bacterial strain were transferred to 5 ml liquid MH medium and left shaking at room temperature overnight at 600 rpm. Cultures of actively growing bacteria (20 μl) were inoculated in 5 ml MH medium and left shaking for 2 h at room temperature. The antibacterial assays were performed as previously described by Sperstad, S. V., et al. ((2009) Mol. Immunol. 46, 2604-2612) with the following exception: bacterial cultures were diluted with medium to 2.5-3×10^4 bacteria/ml concentrations. An aliquot of 50 μl (1250-1500 bacterial cells) was added to each well in 96-well Nunclon™ microtiter plates (Nagle Nunc Int., Denmark) preloaded with peptide solution (50 μl).
(§3) The microtiter plates were incubated for 24 h at 35° C. with optical density recorded every hour using an Envision 2103 multilabel reader, controlled by a Wallac Envision manager (PerkinElmer, Conn., USA). Minimum inhibitory concentration (MIC) was defined as a sample showing complete inhibition (as measured by optical density at 595 nm) compared to the negative (growth) controls, consisting of bacteria and water. Oxytetracycline (20 μM) served as a positive (inhibition) control.
(§4) The synthetic peptides were tested for antibacterial activity in concentrations ranging from 200 to 0.1 μM in two-fold dilutions. All tests were performed in triplicates.

[2] = test system: Escherichia coli (Ec, ATCC 25922)
Protocol: as §1, §2, §3, §4

[3] = test system: Pseudomonas aeruginosa (Pa, ATCC 27853)
Protocol: as §1, §2, §3, §4

[4] = test system: Staphylococcus aureus (Sa, ATCC 9144)
Protocol: as §1, §2, §3, §4

[5] = test system: human red blood cells; experiment: Haemolytic assay; details: for Haemolysis (%) 25 μM: peptide 25 μM; for Haemolysis (%) 25 μM / Haemolysis (%) 200 μM: human red blood cells, one hour at 37° C.; for Haemolysis (%) 200 μM: peptide 200 μM
Protocol: Selected synthesised peptide analogues were also screened for haemolytic activity using human red blood cells as described previously (Sperstad, S. V., et al. (2009) Dev. Comp. Immunol. 33, 583-591). The assay was performed on 96-well U-shaped microtiter plates (Nagle Nunc) with 50 μl peptide sample, 40 μl phosphate-buffered saline (PBS) and 10 μl red blood cells. After one hour of incubation at 37° C. in a shaker, the plate was centrifuged at 200 g for 5 min and the supernatants (60 μl) were carefully transferred to a new flat-bottomed polycarbonate microtiter plate (Nagle Nunc) and the release of haemoglobin (absorbance at 550 nm) was measured on a Synergy H1 multimode reader (BioTek, Vt., USA). Cell suspension added 0.05% Triton X-100 (Sigma-Aldrich, Mo., USA) in PBS served as positive (100% haemolysis) control and cell suspension added PBS served as negative (0% haemolysis, blank) control. The percent haemolysis was calculated using the formula [(Asample-Abaseline)/(Atriton-Abaseline)]×100. The cytotoxic peptide melittin (Sigma-Aldrich) was used as a positive control peptide and for comparison. The experiment was performed in triplicates with peptide concentrations ranging from 200 μM to 1.56 μM in two-fold dilutions.

[6] = test system: A. pullulans, Rhodotorula sp. and C. albicans
Protocol: (§5) The synthetic peptides were also screened for antifungal activity against Candida albicans (ATCC 10231), Aureobasidium pullulans and Rhodotorula sp. (the last two were obtained from Professor Arne Tronsmo, The Norwegian University of Life Sciences, As, Norway). The antifungal assay was performed as previously described (Sperstad, S. V., et al. (2009) Dev. Comp. Immunol. 33, 583-591). Briefly, fungal spores were dissolved in potato dextrose broth (Difco, Lawrence, Kans., USA) to a concentration of 4×10^5 spores/ml. The spores (50 μl) were inoculated on 96-well Nunclon™ microtiter plates containing the synthetic peptides (50 μl) dissolved in MQ-H2O. […] The negative (growth) control consisted of medium and fungal solution. The peptides were tested for activity in concentrations ranging from 100 to 0.1 μM in two-fold serial dilutions. All tests were performed in triplicates.

[7] = test system: Aureobasidium pullulans; details: 24 h
Protocol: as §5

[8] = test system: Candida albicans (ATCC 10231); details: ATCC 10231, 24 h
Protocol: as §5

[9] = test system: Rhodotorula sp.; details: 24 h
Protocol: as §5

GWWRRTVAKVRK-NH2 [HC(1-12)A8K12, GWWRRTVAKVRK-NH2]
MIC (μM) Cg ([1]; ATCC 13032): 0.4 µM
MIC (μM) Ec ([2]; ATCC 25922): 6.3 µM
MIC (μM) Ec ([2]; ATCC 25922, 24 h): 6.3 µM
MIC (μM) Pa ([3]; ATCC 27853): 6.3 µM
MIC (μM) Pa ([3]; ATCC 27853, 24 h): 3.1 µM
MIC (μM) Sa ([4]; ATCC 9144): 6.3 µM
MIC (μM) Sa ([4]; ATCC 9144, 24 h): 25 µM
haemolytic activity ([5]; at concentrations closer to the MIC-values): negligible
Haemolysis (%) 25 μM [5]: 2.4%
Haemolysis (%) 200 μM [5]: 25.1%
Haemolysis (%) 200 μM ([5]; listed as lead peptide): 25%
antifungal MICs (range over the three fungi) [6]: 1.6 to 6.3 µM

GWWRRTVDKVRNAGRK [HC(1-16), GWWRRTVDKVRNAGRK]
MIC (μM) Cg ([1]; ATCC 13032, 24 h): 0.8 µM
MIC (μM) Ec ([2]; ATCC 25922, 24 h): 6.3 µM
MIC (μM) Pa ([3]; ATCC 27853, 24 h): 12.5 µM
MIC (μM) Sa ([4]; ATCC 9144, 24 h): 200 µM
Haemolysis (%) 25 μM [5]: 0.0%
Haemolysis (%) 200 μM [5]: 0.0%
MIC (μM) A. pullulans [7]: 50 µM
MIC (μM) C. albicans [8]: 100 µM
MIC (μM) Rhodotorula sp. [9]: 25 µM

GWWRRTVDKVRNAGRKVAGFASKACGALGH [HC, reference compound]
MIC (μM) Cg ([1]; ATCC 13032, 24 h): 0.4 µM
MIC (μM) Ec ([2]; ATCC 25922, 24 h): 0.8 µM
MIC (μM) Pa ([3]; ATCC 27853, 24 h): 1.6 µM
MIC (μM) Sa ([4]; ATCC 9144, 24 h): 3.1 µM
Haemolysis (%) 25 μM [5]: 13.5%
Haemolysis (%) 200 μM [5]: 74.6%
Haemolysis (%) 200 μM ([5]; listed as full HC): 75%
MIC (μM) A. pullulans [7]: 12.5 µM
MIC (μM) C. albicans [8]: 100 µM
MIC (μM) Rhodotorula sp. [9]: 12.5 µM
